Laboratory results: patent US20250296958A1, “GL[…] E[…]” (THE ADMINISTRATORS OF THE TULANE EDUCATIONAL FUND, priority 2022, published 2025)
Entries after “also recorded” stand apart in the source; their conditions may differ. Where a SMILES comes first, the peptide text is derived from it. Bridges are numbered along the chain shown (N, C = ends). [ ]: non-standard residue; d: D form. The star is where a group is joined. ξ: configuration not given here. X1 = OC[C@H]1O[C@@H](O[C@H]2[C@H](O)[C@@H](O)[C@H](*)O[C@@H]2CO)[C@H](O)[C@@H](O)[C@H]1O; βGlc = OC[C@H]1O[C@@H](*)[C@H](O)[C@@H](O)[C@@H]1O; d1Nal = N[C@H](Cc1cccc2ccccc12)C(=O)O; ξ1Nal = NC(Cc1cccc2ccccc12)C(=O)O

Assays:
male and female DBA mice = test: Hot plate (HP) antinociception test; conditions: for rank order of potency (ED50), HP: both mg/kg and μmol/kg values; for HP antinociception, in words: s.c., 5 hr test
[1] = molecular target: T1, delta opioid receptor (DOR) (Homo sapiens, UniProt P41143); test: Receptor binding, delta opioid receptor (NIMH PDSP)
T1 construct: NIMH Psychoactive Drug Screening Program (PDSP), University of North Carolina at Chapel Hill (performed the assay)
T1 sequence (P41143 whole entry): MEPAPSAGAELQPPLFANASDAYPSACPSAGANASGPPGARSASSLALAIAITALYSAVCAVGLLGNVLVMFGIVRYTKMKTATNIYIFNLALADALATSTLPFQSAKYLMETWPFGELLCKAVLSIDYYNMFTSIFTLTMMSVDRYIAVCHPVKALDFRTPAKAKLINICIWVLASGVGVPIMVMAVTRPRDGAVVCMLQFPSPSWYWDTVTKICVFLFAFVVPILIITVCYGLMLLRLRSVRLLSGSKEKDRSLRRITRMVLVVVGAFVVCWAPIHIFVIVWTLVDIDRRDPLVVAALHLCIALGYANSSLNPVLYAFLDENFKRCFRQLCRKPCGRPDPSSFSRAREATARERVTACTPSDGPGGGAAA
Excerpt: (§1) Receptor Binding Profiles and Ki: The receptor binding an Ki determinations were generously provided by the National Institute of Mental Health's Psychoactive Drug Screening Program (PDSP), Directed by Bryan L. Roth at the University of North Carolina at Chapel Hill and Project Officer Jamie Driscoll at NIMH, Bethesda MD, USA.

mu opioid receptor (MOR) = molecular target: T2, mu opioid receptor (MOR) (Homo sapiens, UniProt P35372); test: Receptor binding, mu opioid receptor (NIMH PDSP); conditions: for MOR affinity, in words: comparison among analogs; for reduction of MOR affinity by glycosylation: relative to unglycosylated reference
T2 construct: NIMH Psychoactive Drug Screening Program (PDSP), University of North Carolina at Chapel Hill (performed the assay)
T2 sequence (P35372 whole entry): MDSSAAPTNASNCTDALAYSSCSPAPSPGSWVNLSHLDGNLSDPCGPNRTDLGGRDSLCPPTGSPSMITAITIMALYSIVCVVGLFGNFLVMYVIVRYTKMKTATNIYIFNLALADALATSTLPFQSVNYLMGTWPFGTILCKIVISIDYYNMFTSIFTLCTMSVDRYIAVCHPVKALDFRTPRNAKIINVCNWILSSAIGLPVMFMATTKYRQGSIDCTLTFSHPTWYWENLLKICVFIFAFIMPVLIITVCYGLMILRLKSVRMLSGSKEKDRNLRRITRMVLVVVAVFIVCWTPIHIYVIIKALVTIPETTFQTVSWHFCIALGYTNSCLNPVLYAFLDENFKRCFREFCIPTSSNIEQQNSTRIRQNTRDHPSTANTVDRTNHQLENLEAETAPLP
Excerpt: as §1

[2] = molecular target: T3, kappa opioid receptor (KOR) (Homo sapiens, UniProt P41145); test: Receptor binding, kappa opioid receptor (NIMH PDSP); conditions: for kap/mu: ratio of KOR-to-MOR binding (Ki)
T3 construct: NIMH Psychoactive Drug Screening Program (PDSP), University of North Carolina at Chapel Hill (performed the assay)
T3 sequence (P41145 whole entry): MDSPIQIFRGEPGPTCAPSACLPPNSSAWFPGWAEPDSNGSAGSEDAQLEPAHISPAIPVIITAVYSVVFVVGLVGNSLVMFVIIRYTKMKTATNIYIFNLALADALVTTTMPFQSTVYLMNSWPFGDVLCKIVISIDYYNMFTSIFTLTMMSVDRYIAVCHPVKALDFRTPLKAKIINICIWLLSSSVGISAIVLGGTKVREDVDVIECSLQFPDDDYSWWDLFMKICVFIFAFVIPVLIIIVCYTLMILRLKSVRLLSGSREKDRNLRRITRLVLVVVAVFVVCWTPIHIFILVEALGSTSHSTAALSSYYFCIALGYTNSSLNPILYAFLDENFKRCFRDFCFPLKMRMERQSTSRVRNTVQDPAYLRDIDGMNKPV
Excerpt: as §1

[3] = system: male and female CD-1 mice; test: Tail flick (TF) antinociception test; type: in vivo; conditions: for rank order of effectiveness, TF AUC: main effects of drug; for rank order of potency (ED50), TF: mg/kg calculations; for TF antinociception AUC: top dose (5.6 mg/kg), mean male and female
Protocol: Tail Flick (TF): CD1 mice were used for this test. The latency to withdraw the tail from a heat source was automatically measured (IITC, Woodland Hills, CA). […] Percent Maximum Possible Effect (% MPE) was determined as [(latency-baseline latency)/(9-baseline latency)]*100.
Statistics/Data Analysis: Data were analyzed with […] PRISM software (GraphPad Software, San Diego CA).

[4] = system: delta opioid receptor (DOR); test: Receptor binding, delta opioid receptor (NIMH PDSP); conditions: ratio of DOR-to-MOR binding (Ki)
Excerpt: as §1

[5] = i.v.; cited from earlier work
male CD-1 mice = test: Conditioned place preference (CPP)
Protocol: Conditioned Place Preference (CPP): Male CD-1 mice were tested for CPP in a modified 2-chamber apparatus (Noldus, Leesburg, VA). The 20×20 cm chambers had distinct visual and tactile cues: 1) vertical striped walls with circular holes in a metal floor or 2) gray walls with clover-shaped holes. […] Eight arenas were counterbalanced for the cue pattern in the left and right chamber. Tests were conducted in 4 phases: habituation (days 1-2, 30′), baseline (day 4-5, 20′), conditioning (days 6-8, 40′), and testing (day 9, 20′). Two sessions per day were conducted at each phase (9:30 and 10:30 am) and animals were placed in the left chamber in session 1 and the right in session 2. For baseline and testing, both chambers were freely accessible. […] These protocols balanced exposure to the chambers, and for conditioning, minimized drug carry-over effects. CPP was determined as the change in time spent on the drug-associated side minus the time spent on that same side during baseline tests.
After two habituation and two baseline sessions, three conditioning days were conducted. […] The following day, a test session was conducted and CPP was determined as the change in time spent on the drug-associated side minus the time spent on that same side during baseline tests.

| Compound | rank order of potency (ED50), HP (male and female DBA mice) | HP antinociception, in words (male and female DBA mice) | DOR binding, in words [1] | MOR affinity, in words (mu opioid receptor (MOR)) | reduction of MOR affinity by glycosylation (mu opioid receptor (MOR)) | KOR binding, in words [2] | rank order of effectiveness, TF AUC [3] | rank order of potency (ED50), TF [3] | Ki [1] [µM] | del/mu [4] | kap/mu [2] | also measured |
| --- | --- | --- | --- | --- | --- | --- | --- | --- | --- | --- | --- | --- |
| NC(=O)[C@H](CO[C@@H]1O[C@H](CO)[C@@H](O)[C@H](O)[C@H]1O)NC(=O)[C@H](CO[C@@H]1O[C@H](CO)[C@@H](O)[C@H](O)[C@H]1O)NC(=O)[C@@H]1CCC(=O)NCCCC[C@@H](NC(=O)[C@@H](N)Cc2ccc(O)cc2)C(=O)N[C@@H](Cc2c[nH]c3ccccc23)C(=O)N[C@@H](Cc2ccccc2)C(=O)N1 [Analog A7, Tyr-c[D-Lys-Trp-Phe-Glu]-Ser(β-Glc)-Ser(β-Glc)-NH2] | A2>A7>A1>ZH853>morphine | robust antinociception; also recorded: significantly greater AUC | below detectable levels | did not change MOR affinity | approximately 5 fold | below detectable levels | A2>A7>A1>morphine>ZH853 | A2>A7>A1>morphine >ZH853 | – | – | – | greater HP effectiveness versus control compounds (AUC) (male and female DBA mice; 1.8 mg/kg vs 5.6 mg/kg for controls): approximately 3 fold |
| NC(=O)[C@H](CO[C@@H]1O[C@H](CO)[C@@H](O)[C@H](O)[C@H]1O)NC(=O)[C@@H]1CCC(=O)NCCCC[C@@H](NC(=O)[C@@H](N)Cc2ccc(O)cc2)C(=O)N[C@H](Cc2cccc3ccccc23)C(=O)N[C@@H](Cc2ccccc2)C(=O)N1 [Analog A4] (H-Y[dK][d1Nal]FES(βGlc)-NH2; lactam 2-5) | – | – | eliminated delta and kappa binding | – | – | eliminated delta and kappa binding | – | – | ≥ 10 | 157 | 157 | Ki (mu opioid receptor (MOR)): 63.5 nM; additional reduction of MOR binding by D-Nal substitution of Trp at position 3 (mu opioid receptor (MOR)): 11 fold; Ki [2]: ≥ 10 µM |
| NC(=O)[C@H](CO[C@@H]1O[C@H](CO)[C@@H](O)[C@H](O)[C@H]1O)NC(=O)[C@@H]1CCC(=O)NCCCC[C@@H](NC(=O)[C@@H](N)Cc2ccc(O)cc2)C(=O)N[C@@H](Cc2c[nH]c3ccccc23)C(=O)N[C@@H](Cc2ccccc2)C(=O)N1 [Analog A1, Tyr-c[D-Lys-Trp-Phe-Glu]-Ser(β-Glc)-NH2] | A2>A7>A1>ZH853>morphine | not significantly greater than those of reference compounds | – | – | approximately 5 fold | – | A2>A7>A1>morphine>ZH853 | A2>A7>A1>morphine >ZH853 | – | – | – | – |
| NC(=O)[C@H](CO[C@@H]1O[C@H](CO)[C@@H](O[C@@H]2O[C@H](CO)[C@H](O)[C@H](O)[C@H]2O)[C@H](O)[C@H]1O)NC(=O)[C@@H]1CCC(=O)NCCCC[C@@H](NC(=O)[C@@H](N)Cc2ccc(O)cc2)C(=O)N[C@@H](Cc2c[nH]c3ccccc23)C(=O)N[C@@H](Cc2ccccc2)C(=O)N1 [Analog A2, Tyr-c[D-Lys-Trp-Phe-Glu]-Ser(β-Lact)-NH2] | A2>A7>A1>ZH853>morphine | robust antinociception; also recorded: significantly greater AUC | – | – | approximately 5 fold | – | A2>A7>A1>morphine>ZH853 | A2>A7>A1>morphine >ZH853 | – | – | – | TF antinociception (full) ([3]; 1.8 mg/kg): 100 % MPE; dose lower than morphine for equal total TF antinociception, mg/kg basis ([3]; 1.8 mg/kg A2 matched to 10 mg/kg morphine): 5.55 fold; TF antinociception, in words ([3]; s.c., time course and AUC): remained high at the 5-hour limit of the test; TF antinociception AUC [3]: > 25000 |
| NC(=O)[C@H](CO[C@@H]1O[C@H](CO)[C@@H](O[C@@H]2O[C@H](CO)[C@H](O)[C@H](O)[C@H]2O)[C@H](O)[C@H]1O)NC(=O)[C@@H]1CCC(=O)NCCCC[C@@H](NC(=O)[C@@H](N)Cc2ccc(O)cc2)C(=O)N[C@H](Cc2cccc3ccccc23)C(=O)N[C@@H](Cc2ccccc2)C(=O)N1 [Analog A5] (H-Y[dK][d1Nal]FES(X1)-NH2; lactam 2-5) | – | – | eliminated delta and kappa binding | – | – | eliminated delta and kappa binding | – | – | ≥ 10 | 181 | 181 | Ki (mu opioid receptor (MOR)): 55.2 nM; additional reduction of MOR binding by D-Nal substitution of Trp at position 3 (mu opioid receptor (MOR)): 11 fold; Ki [2]: ≥ 10 µM |
| NC(=O)[C@H](CO[C@@H]1O[C@H](CO)[C@@H](O)[C@H](O)[C@H]1O)NC(=O)CNC(=O)[C@@H]1CCC(=O)NCCCC[C@@H](NC(=O)[C@@H](N)Cc2ccc(O)cc2)C(=O)N[C@@H](Cc2c[nH]c3ccccc23)C(=O)N[C@@H](Cc2ccccc2)C(=O)N1 [Analog A3] | – | – | – | lowest MOR affinity | – | increased KOR affinity | – | – | ≥ 10 | – | – | – |
| NC(=O)CNC(=O)[C@@H]1CCC(=O)NCCCC[C@@H](NC(=O)[C@@H](N)Cc2ccc(O)cc2)C(=O)N[C@@H](Cc2c[nH]c3ccccc23)C(=O)N[C@@H](Cc2ccccc2)C(=O)N1 [ZH853, reference compound] | A2>A7>A1>ZH853>morphine | – | – | subnanomolar Ki, showed the highest MOR affinity | – | – | A2>A7>A1>morphine>ZH853 | A2>A7>A1>morphine >ZH853 | 0.271 | – | – | morphine equivalence [5]: about 1; time of peak response, TF ([3]; s.c.): 30 to 40 min; TF antinociception AUC [3]: 10000 |
| NC(=O)[C@H](CO[C@@H]1O[C@H](CO)[C@@H](O)[C@H](O)[C@H]1O)NC(=O)[C@@H]1CCC(=O)NCCCC[C@@H](NC(=O)[C@@H](N)Cc2ccc(O)cc2)C(=O)NC(Cc2cccc3ccccc23)C(=O)N[C@@H](Cc2ccccc2)C(=O)N1 (some centres unmarked) [Analog A6] (H-Y[dK][ξ1Nal]FES(βGlc)-NH2; lactam 2-5) | – | – | – | did not reduce MOR affinity | approximately 5 fold | increased KOR affinity | – | – | – | 57 | 48 | MOR selectivity, in words (mu opioid receptor (MOR); versus DOR and KOR): least selective compound |
| CN1CC[C@]23c4c5ccc(O)c4O[C@H]2[C@@H](O)C=C[C@H]3[C@H]1C5 [morphine, reference compound] | A2>A7>A1>ZH853>morphine | – | – | – | – | – | – | A2>A7>A1>morphine >ZH853 | – | – | – | CPP versus vehicle (male CD-1 mice; 3.2 mg/kg, one-way analysis, p<0.01): greater than vehicle; conditioned place preference (CPP) (male CD-1 mice; 3 equiantinociceptive doses, s.c., n=12): produced CPP; TF antinociception (full) ([3]; 10 mg/kg, n=6): 100 % MPE; time of peak response, TF ([3]; s.c.): 20 to 30 min |
